Assay results reported in the supplement of paper PMC6045584.
± gives the standard deviation of the averaged measurements.

Key:
[1] = compound: O=C(c1cc(Cc2n[nH]c(=O)c3ccccc23)ccc1F)N1CCN(C(=O)C2CC2)CC1 [OLAPARIB]; test: surviving fraction relative to DMSO-only wells; higher = less growth inhibition; conditions: exposure time: 5 days
Summary of the method: (§1)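 In 384-well plates, 250–500 log-phase tumour cells per well were given 24 hours before five days of continuous exposure to inhibitors at 0.5, 1, 5, 10, 50, 100, 500 and 1000 nM. Surviving fraction is luminescence from CellTiter-Glo, normalised to the median of wells containing DMSO alone. Reading took place after 10 minutes at room temperature.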

[2] = compound: C[C@@H](Oc1cc(-c2cnn(C3CCNCC3)c2)cnc1N)c1c(Cl)ccc(F)c1Cl; test: as above; conditions: exposure time: 5 days
Summary of the method: as §1

Test System | surviving fraction ([1]; 0.5 nM) | surviving fraction ([1]; 1 nM) | surviving fraction ([1]; 5 nM) | surviving fraction ([1]; 10 nM) | surviving fraction ([1]; 50 nM) | surviving fraction ([1]; 100 nM) | surviving fraction ([1]; 500 nM) | surviving fraction ([1]; 1000 nM) | surviving fraction ([2]; 0.5 nM) | surviving fraction ([2]; 1 nM) | surviving fraction ([2]; 5 nM) | surviving fraction ([2]; 10 nM) | surviving fraction ([2]; 50 nM) | surviving fraction ([2]; 100 nM) | surviving fraction ([2]; 500 nM) | surviving fraction ([2]; 1000 nM)
SJSA1 BONE | 1 ± 0.025 | 1.01 ± 0.045 | 1.03 ± 0.061 | 1.02 ± 0.066 | 1.01 ± 0.083 | 0.963 ± 0.024 | 0.931 ± 0.051 | 0.876 ± 0.039 | 0.881 ± 0.019 | 0.9053 ± 0.0031 | 0.912 ± 0.062 | 0.935 ± 0.023 | 1.06 ± 0.069 | 1.05 ± 0.05 | 0.889 ± 0.053 | 0.622 ± 0.0085
HCC1395 BREAST | 0.85 ± 0.034 | 0.934 ± 0.12 | 1.06 ± 0.065 | 1.03 ± 0.037 | 0.93 ± 0.11 | 1.02 ± 0.059 | 0.787 ± 0.096 | 0.799 ± 0.17 | 0.831 ± 0.14 | 0.74 ± 0.087 | 0.814 ± 0.074 | 0.838 ± 0.097 | 1.01 ± 0.11 | 1 ± 0.065 | – | 1 ± 0.089
CAL51 BREAST | 0.97 ± 0.044 | 1 ± 0.051 | 0.95 ± 0.025 | 0.926 ± 0.07 | 0.948 ± 0.03 | 0.882 ± 0.076 | 0.828 ± 0.024 | 0.66 ± 0.051 | 0.958 ± 0.033 | 0.918 ± 0.099 | 1 ± 0.023 | 0.909 ± 0.049 | 0.972 ± 0.046 | 0.949 ± 0.026 | 0.215 ± 0.017 | 0.175 ± 0.0096
MDAMB157 BREAST | 1.01 ± 0.093 | 1.06 ± 0.035 | 0.992 ± 0.085 | 0.968 ± 0.051 | 0.991 ± 0.096 | 0.965 ± 0.043 | 0.903 ± 0.079 | 0.729 ± 0.04 | – | 0.818 ± 0.016 | 0.967 ± 0.042 | 0.95 ± 0.029 | 0.877 ± 0.038 | 0.836 ± 0.097 | 0.451 ± 0.017 | 0.569 ± 0.071
SG43 HEADNECK | 1.18 ± 0.24 | 0.979 ± 0.16 | 0.835 ± 0.043 | 0.882 ± 0.095 | 1.19 ± 0.025 | 1.01 ± 0.059 | 0.982 ± 0.11 | 0.935 ± 0.042 | 1.14 ± 0.1 | 1.22 ± 0.16 | – | 1.09 ± 0.22 | 0.946 ± 0.37 | 0.816 ± 0.13 | 0.564 ± 0.14 | 0.256 ± 0.082
MDAMB231 BREAST | 0.961 ± 0.02 | 0.98 ± 0.031 | 0.974 ± 0.0099 | 0.97 ± 0.029 | 0.929 ± 0.017 | 0.957 ± 0.013 | 0.899 ± 0.015 | 0.807 ± 0.016 | – | 0.939 ± 0.017 | 0.957 ± 0.022 | 0.939 ± 0.025 | 0.955 ± 0.013 | 0.8698 ± 0.0057 | 0.437 ± 0.014 | 0.303 ± 0.012
CAL72 BONE | 1.05 ± 0.017 | 1.098 ± 0.0086 | 1.0433 ± 0.00058 | 1.06 ± 0.033 | 0.98 ± 0.029 | 0.958 ± 0.027 | 0.949 ± 0.021 | 0.901 ± 0.029 | 1 ± 0.02 | 1.04 ± 0.024 | 1.02 ± 0.029 | – | 1.09 ± 0.047 | 1.1 ± 0.013 | 0.903 ± 0.025 | 0.9047 ± 0.0064
VP229 BREAST | 1.07 ± 0.11 | 1.08 ± 0.13 | 1.01 ± 0.021 | 1.12 ± 0.19 | 0.886 ± 0.071 | 0.788 ± 0.068 | 0.879 ± 0.12 | 0.821 ± 0.046 | 0.809 ± 0.029 | – | 0.95 ± 0.11 | 0.777 ± 0.12 | 1.08 ± 0.098 | – | – | 0.544 ± 0.024
CASKI CERVIX | 0.921 ± 0.029 | 0.947 ± 0.057 | 0.993 ± 0.051 | 0.982 ± 0.015 | 0.859 ± 0.016 | 0.844 ± 0.026 | 0.749 ± 0.075 | 0.765 ± 0.068 | 0.829 ± 0.056 | 0.782 ± 0.081 | 0.816 ± 0.011 | – | 0.925 ± 0.022 | 0.88 ± 0.014 | 0.308 ± 0.018 | 0.303 ± 0.036
BT549 BREAST | 1.03 ± 0.096 | 1.01 ± 0.064 | 0.941 ± 0.0053 | 0.9883 ± 0.0074 | 0.686 ± 0.041 | 0.719 ± 0.062 | 0.718 ± 0.033 | 0.598 ± 0.048 | 0.76 ± 0.093 | 0.99 ± 0.11 | – | 0.905 ± 0.019 | 1.1 ± 0.073 | – | – | 0.371 ± 0.042
MHM BONE | 1.001 ± 0.0057 | 1.02 ± 0.014 | 1.04 ± 0.022 | 1.02 ± 0.021 | 1.1 ± 0.018 | 1.052 ± 0.0081 | 1.04 ± 0.018 | 1.02 ± 0.028 | 0.982 ± 0.041 | 0.991 ± 0.02 | 0.991 ± 0.023 | 0.993 ± 0.023 | – | 0.977 ± 0.011 | 0.905 ± 0.018 | 0.817 ± 0.012
DU4475 BREAST | 1.16 ± 0.21 | 1.36 ± 0.5 | 1.228 ± 0.009 | 1.22 ± 0.31 | 0.954 ± 0.28 | 0.739 ± 0.23 | 0.689 ± 0.21 | 0.517 ± 0.15 | 0.798 ± 0.13 | 0.753 ± 0.041 | 0.83 ± 0.15 | 0.706 ± 0.14 | 0.748 ± 0.089 | 0.722 ± 0.23 | 0.423 ± 0.18 | 0.0877 ± 0.041
MDAMB468 BREAST | 0.928 ± 0.045 | 0.907 ± 0.026 | 0.935 ± 0.025 | 0.942 ± 0.029 | 0.861 ± 0.031 | 0.849 ± 0.049 | 0.835 ± 0.04 | 0.595 ± 0.047 | 0.845 ± 0.076 | – | – | 0.9157 ± 0.004 | 0.972 ± 0.066 | 1.05 ± 0.041 | 0.551 ± 0.081 | 0.234 ± 0.019
LNCAP PROSTATE | 1.09 ± 0.1 | 1.03 ± 0.16 | 1 ± 0.096 | 1.032 ± 0.0049 | 1.12 ± 0.086 | 1.02 ± 0.29 | 0.97 ± 0.061 | 0.82 ± 0.13 | 1.07 ± 0.056 | 1.16 ± 0.13 | 1.15 ± 0.034 | 1.13 ± 0.12 | 1 ± 0.045 | 0.801 ± 0.17 | 0.528 ± 0.075 | 0.464 ± 0.031
SNU475 LIVER | 1 ± 0.079 | 0.957 ± 0.032 | 1 ± 0.039 | 0.994 ± 0.07 | 0.893 ± 0.059 | 0.8737 ± 0.0067 | 0.918 ± 0.013 | 0.838 ± 0.016 | 0.8177 ± 0.0046 | – | 0.829 ± 0.049 | – | 0.927 ± 0.039 | – | 0.853 ± 0.031 | 0.662 ± 0.04
HUO3N1 BONE | 1.008 ± 0.0076 | 1.01 ± 0.024 | 1.06 ± 0.029 | 1.02 ± 0.031 | 1.03 ± 0.045 | 0.922 ± 0.032 | 0.913 ± 0.014 | 0.834 ± 0.02 | – | – | 0.971 ± 0.034 | – | 0.974 ± 0.02 | 0.954 ± 0.029 | 0.842 ± 0.019 | 0.695 ± 0.031
HCC1806 BREAST | 0.945 ± 0.059 | 1.01 ± 0.063 | 1.05 ± 0.099 | 0.984 ± 0.068 | 0.896 ± 0.12 | 0.74 ± 0.041 | 0.582 ± 0.065 | 0.567 ± 0.066 | 0.818 ± 0.034 | 0.74 ± 0.067 | 0.87 ± 0.029 | – | 1.06 ± 0.11 | 0.862 ± 0.018 | 0.502 ± 0.022 | 0.273 ± 0.0078
COLO320DM LARGE INTESTINE | 1.13 ± 0.19 | 0.997 ± 0.15 | 1.09 ± 0.046 | 1.03 ± 0.21 | 1.07 ± 0.091 | 1.03 ± 0.082 | 1.06 ± 0.048 | 0.991 ± 0.03 | – | 1.13 ± 0.071 | 1.02 ± 0.041 | 0.977 ± 0.042 | 1.05 ± 0.042 | 1.02 ± 0.027 | 0.512 ± 0.0092 | 0.341 ± 0.011
ZR751 BREAST | 1.11 ± 0.17 | 1.08 ± 0.13 | 1.08 ± 0.35 | 1.01 ± 0.1 | 1.1 ± 0.023 | 1.11 ± 0.086 | 1.14 ± 0.089 | 1.02 ± 0.14 | 0.874 ± 0.087 | 0.924 ± 0.052 | 0.873 ± 0.082 | 0.797 ± 0.046 | 0.82 ± 0.14 | 0.967 ± 0.052 | 0.727 ± 0.074 | 0.699 ± 0.077
LM7 BONE | 1 ± 0.081 | 0.976 ± 0.058 | 1.02 ± 0.071 | 0.963 ± 0.015 | 0.812 ± 0.042 | 0.829 ± 0.02 | 0.614 ± 0.0076 | 0.554 ± 0.014 | 0.745 ± 0.03 | 0.765 ± 0.027 | 0.779 ± 0.026 | 0.782 ± 0.075 | – | 0.859 ± 0.081 | 0.366 ± 0.031 | 0.168 ± 0.0087
SKBR3 BREAST | 1.02 ± 0.1 | 1.05 ± 0.15 | 0.939 ± 0.12 | 1 ± 0.21 | 0.922 ± 0.14 | 0.935 ± 0.093 | 0.79 ± 0.13 | 0.813 ± 0.072 | 0.731 ± 0.039 | 0.814 ± 0.075 | – | 0.859 ± 0.071 | 0.997 ± 0.12 | – | 0.759 ± 0.035 | –
SCC36 HEADNECK | 1 ± 0.045 | 0.993 ± 0.12 | 1.06 ± 0.018 | 0.948 ± 0.12 | 0.837 ± 0.1 | 0.697 ± 0.027 | 0.705 ± 0.066 | 0.596 ± 0.066 | 0.784 ± 0.039 | 0.784 ± 0.07 | 0.742 ± 0.077 | 0.742 ± 0.071 | 0.913 ± 0.021 | – | 0.403 ± 0.022 | 0.255 ± 0.011
